The subject of one series is NRF2. The experiment in a line: Measurement 2 of Nrf2 activating action (reporter assay) in HCE-T/ARE-Luc cells. Type of series: cell-based. The following applies: 50% activation concentration, culture for 24 hours. As for the experimental part: The NRF2 activating action of the compounds on cells was measured by a reporter gene assay. pGL4.37[luc2P/ARE/Hygro](Promega) was introduced into HCE-T cells using FuGENE HD. Cells that acquired drug resistance as a result of transduction were screened by culture in the presence of 50 μg/mL hygromycin, and a clone strain, HCE-T/ARE-Luc, was established.
HCE-T/ARE-Luc was cultured using DMEM/F12, 10 ng/mL hEGF, 5 μg/mL insulin, and 5% FBS. Phenol red-free DMEM/F12 was used as the assay medium.
HCE-T/ARE-Luc was seeded in a 96-well polystyrene microplate (FALCON) with 10000 cells per well. The cells were incubated in a CO: incubator at 37° C. for 16 hours to allow for cell adhesion. The test substance was dissolved in dimethylsulfoxide to prepare a solution at a concentration 1000 times higher than the test concentration. The test substance diluted 1000-fold in the assay medium was added, followed by culture for 24 hours. When measuring the activity of the reporter, the medium containing the test substance was removed, and then a new medium and a substrate of ONE-GloEX Luciferase Assay System (Promega) were added. The plate was shaken for 1 minute and then allowed to stand at ordinary temperature for 10 minutes, and luminescence was detected using the GloMax Discover System.
The 50% activation concentration of each test substance was calculated by creating a calibration curve between two concentrations across the luminescence intensity of 50%.
On the technique in general: A reporter such as luciferase makes a cellular process visible.

Series [1] in a line: Measurement of metabolic stability in human liver microsomes. Type of series: in vitro ADME. The following applies: residual ratio of test compound after 30 minutes at 37° C. with human liver microsome, LC/MS/MS. The protocol: 1 mmol/L DMSO solutions of the compounds produced in the Examples were prepared. Each of the 1 mmol/L DMSO solutions was diluted with acetonitrile to 10 μmol/L, and then diluted with a 6.5 mmol/L Q-NADPH solution to 200 nmol/L. 50 μL of each solution was added to the reaction group and the non-reaction group. 50 μL of a 0.2 mg protein/mL human liver microsome (Mixed Gender, Pool of 50 livers; XenoTech, LLC) solution was added to the reaction group, followed by incubation at 37° C. for 30 minutes with shaking. After 400 μL of methanol was added to the non-reaction group, 50 μL of a 0.2 mg protein/mL human liver microsome solution was added to adjust the formulation. After incubation in the reaction group, 400 μL of methanol was added to stop the reaction. The samples of the reaction group and non-reaction group were allowed to stand at −20° C. for about 30 minutes, followed by centrifugation at 4° C. at 3000 rpm for about 10 minutes. The supernatant was analyzed using LC/MS/MS, and the residual ratio of the test compound was calculated from the peak area value of the test compound using the following formula. The measurement was carried out using the following devices: HPLC system: LC-20A-Series High Performance Liquid Chromatograph (Shimadzu Corporation) and mass spectrometer: API 4000 (AB Sciex Pte. Ltd.), or using equivalent devices. Residual ratio (%)=(peak area value of test compound in reaction group/peak area value of test compound in non-reaction group)×100 Results
On the technique in general: Microsomes from liver hold many membrane-bound enzymes, among them those of drug oxidation.

The target of series [2] is T1, binding between NRF2 and KEAP1 (Homo sapiens, UniProt Q14145).
T1 construct: expressed in transfected cells; host or cells: HCE-T cells; each protein was expressed separately, and the two cell lysates were mixed in the well
T1 sequence (Q14145 whole entry): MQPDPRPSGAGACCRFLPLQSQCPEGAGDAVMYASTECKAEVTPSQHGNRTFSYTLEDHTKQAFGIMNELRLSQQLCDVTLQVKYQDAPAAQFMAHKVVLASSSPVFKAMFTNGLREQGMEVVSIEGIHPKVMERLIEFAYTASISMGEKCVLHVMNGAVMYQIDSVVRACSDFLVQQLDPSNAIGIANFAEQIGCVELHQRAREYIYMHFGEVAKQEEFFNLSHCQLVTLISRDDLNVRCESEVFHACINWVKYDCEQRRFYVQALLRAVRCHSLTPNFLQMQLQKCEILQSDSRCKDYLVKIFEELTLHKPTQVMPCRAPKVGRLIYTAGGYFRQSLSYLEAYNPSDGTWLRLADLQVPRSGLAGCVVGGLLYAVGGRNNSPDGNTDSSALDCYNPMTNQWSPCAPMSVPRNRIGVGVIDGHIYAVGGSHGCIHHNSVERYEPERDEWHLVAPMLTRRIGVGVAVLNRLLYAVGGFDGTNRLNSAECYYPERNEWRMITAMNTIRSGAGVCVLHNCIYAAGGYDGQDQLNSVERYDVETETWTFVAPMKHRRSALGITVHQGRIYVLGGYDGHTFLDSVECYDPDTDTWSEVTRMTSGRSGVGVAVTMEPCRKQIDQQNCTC
In words: Measurement 1 of Nrf2 activating action (binding assay): BRET assay of inhibition of the binding between NRF2 and KEAP1. The following applies: 50% binding inhibitory concentration, NanoLuc-NRF2 / KEAP1-HaloTag cell lysates. As for the experimental part:
Compounds 1 to 53 produced in the Examples were used as test substances.
The inhibitory activity of each compound on the binding between NRF2 and KEAP1 was measured by bioluminescence resonance energy transfer (BRET) assay. A plasmid having human NRF2 (Original Clone ID: ha01449s1) sequence fused with NanoLuc (19 kDa, Promega) at the N-terminal was transduced into HCE-T cells using FuGENE HD (Promega). 48 hours after transduction, the cell lysate was collected and used as an NRF2-expressing cell lysate. A plasmid having human KEAP1 (Original Clone ID: cs00328) sequence fused with HaloTag (33 kDa, Promega) at the C-terminal was transduced into HCE-T cells using FuGENE HD (Promega). After 24 hours, HaloTag Nano BRET 618 Ligand (Promega) was added to the medium. The cell lysate cultured for 24 hours after the addition was used as a KEAP1-expressing cell lysate.
The NRF2-expressing cell lysate and the KEAP1-expressing cell lysate were adjusted so that the luminescence and fluorescence intensities per well were constant. Tables 1 and 2 show the formulation of each reaction solution.
Each test substance at a concentration 100 times higher than the test concentration was dissolved in dimethylsulfoxide for adjustment. 49 μL of KEAP1 solution was added to a 96-well polystyrene microplate (FALCON) to which 1 μL of each test substance solution was added, followed by incubation for 15 minutes. Then, 50 μL of NRF2 solution was added to the above solution, followed by incubation for 1 hour. To measure the binding between NRF2 and KEAP1, NanoBRET Nano-Glo Substrate (Promega) diluted with Opti-Mem (Thermo Fisher Scientific) was added, followed by shaking for 30 seconds. Then, luminescence and fluorescence were measured using the GloMax Discover System (Promega). A 495-nm short pass filter and a 600-nm long pass filter were respectively used to measure donor and acceptor emission values. A value obtained by dividing the acceptor emission value by the donor emission value was regarded as BRET value. A BRET value when the compound was not added, and a BRET value when the KEAP1 solution was not added were respectively used as binding rates of 100% and 0%, and the binding rate when the compound was added was calculated. Further, using this binding rate, the 50% binding inhibitory activity concentration (IC50) was calculated from the following formula: IC50(M)=10^(LOG(A/B)×(50−C)/(D−C)+LOG(B)) • A: higher concentration out of 2 close concentrations across the inhibition rate of 50% • B: lower concentration out of 2 close concentrations across the inhibition rate of 50% • C: inhibition rate at B • D: inhibition rate at A

The text below walks through data of patent publication US12552757B2, “NRF2-activating compound” (SENJU PHARMACEUTICAL CO., LTD., priority 2019, dated 2026).

In the series with NRF2, `CC[C@@H]1CN(Cc2cc(C(c3ccc(C(C)=O)s3)C(C)C(=O)O)ccc2C)S(=O)(=O)c2cnccc2O1` (stereo partly drawn) [Compound 16, 3-(5-acetylthiophen-2-yl)-3-(3-{[(R)-4-ethyl-1,1-dioxide-3,4-dihydro-2H-pyrido[4,3-b][1,4,5]oxathiazepin-2-yl]methyl}-4-methylphenyl)-2-methylpropanoic acid] displayed an EC50 of 3.57 nM. Moreover, in series [1], the “Metabolic stability*” value was 51%.

`CC[C@@H]1CN(Cc2cc(C(c3ccc(C(C)=O)s3)C(C)(C)C(=O)O)ccc2C)S(=O)(=O)c2cnccc2O1` (stereo partly drawn) [Compound 48, 3-(5-acetylthiophen-2-yl)-3-(3-{[(R)-4-ethyl-1,1-dioxide-3,4-dihydro-2H-pyrido[4,3-b][1,4,5]oxathiazepin-2-yl]methyl}-4-methylphenyl)-2,2-dimethylpropanoic acid] registered an EC50 in the series on NRF2 of 3.67 nM. Also, the “Metabolic stability*” value in series [1] amounted to 56%.

In the series with NRF2, `CC[C@@H]1CN(Cc2cc(C(c3cc(F)c(C(C)=O)s3)C(C)(C)C(=O)O)ccc2C)S(=O)(=O)c2cnccc2O1` (stereo partly drawn) [Compound 49, 3-(5-acetyl-4-fluorothiophen-2-yl)-3-(3-{[(R)-4-ethyl-1,1-dioxide-3,4-dihydro-2H-pyrido[4,3-b][1,4,5]oxathiazepin-2-yl]methyl}-4-methylphenyl)-2,2-dimethylpropanoic acid] yielded an EC50 of 7.76 nM. In addition, in series [1], the “Metabolic stability*” value is 44%.

In the series with NRF2, `CC[C@@H]1CN(Cc2cc(C(c3cc(C)c(C(C)=O)s3)C(C)C(=O)O)ccc2C)S(=O)(=O)c2ccccc2O1` (stereo partly drawn) [Compound 2, 3-(5-acetyl-4-methylthiophen-2-yl)-3-(3-{[(R)-4-ethyl-1,1-dioxide-3,4-dihydro-2H-benzo[b][1,4,5]oxathiazepin-2-yl]methyl}-4-methylphenyl)-2-methylpropanoic acid] gave an EC50 of 9 nM. Moreover, in series [1], the “Metabolic stability*” value came to 21%.

`CC[C@@H]1CN(Cc2cc(C(c3cc(OC)c(C(C)=O)s3)C(C)C(=O)O)ccc2C)S(=O)(=O)c2cnccc2O1` (stereo partly drawn) [Compound 51, 3-(5-acetyl-4-methoxythiophen-2-yl)-3-(3-{[(R)-4-ethyl-1,1-dioxide-3,4-dihydro-2H-pyrido[4,3-b][1,4,5]oxathiazepin-2-yl]methyl}-4-methylphenyl)-2-methylpropanoic acid] yielded an EC50 in the series on NRF2 of 7.47 nM. For the same molecule, the “Metabolic stability*” value in series [1] is 50%.

In the case of `CC[C@@H]1CN(Cc2cc(C(c3cc(OC)c(C(C)=O)s3)C(C)(C)C(=O)O)ccc2C)S(=O)(=O)c2cnccc2O1` (stereo partly drawn) [Compound 50, 3-(5-acetyl-4-methoxythiophen-2-yl)-3-(3-{[(R)-4-ethyl-1,1-dioxide-3,4-dihydro-2H-pyrido[4,3-b][1,4,5]oxathiazepin-2-yl]methyl}-4-methylphenyl)-2,2-dimethylpropanoic acid], the EC50 in the series on NRF2 worked out at 2.98 nM. Also, in series [1], the “Metabolic stability*” value is 48%.

Turning to `CC[C@@H]1CN(Cc2cc(C(c3ccc(C(C)=O)s3)C(C)C(=O)O)ccc2C)S(=O)(=O)c2ccccc2O1` (stereo partly drawn) [Compound 1, 3-(5-acetylthiophen-2-yl)-3-(3-{[(R)-4-ethyl-1,1-dioxide-3,4-dihydro-2H-benzo[b][1,4,5]oxathiazepin-2-yl]methyl}-4-methylphenyl)-2-methylpropanoic acid], the EC50 in the series with NRF2 was found to be 9.19 nM. Also, the “Metabolic stability*” value in series [1] was 37%.

`CC[C@@H]1CN(Cc2cc(C(c3cc(OC)c(C(C)=O)s3)C(C)(C)C(=O)O)ccc2C)S(=O)(=O)c2ccccc2O1` (stereo partly drawn) [Compound 4, 3-(5-acetyl-4-methoxythiophen-2-yl)-3-(3-{[(R)-4-ethyl-1,1-dioxide-3,4-dihydro-2H-benzo[b][1,4,5]oxathiazepin-2-yl]methyl}-4-methylphenyl)-2,2-dimethylpropanoic acid] gave an EC50 in the series with NRF2 of 7.17 nM. The “Metabolic stability*” value in series [1] was 48%.

Turning to `CC[C@@H]1CN(Cc2cc(C(CC(=O)O)c3ccc(C(=O)N4CCCC4)o3)ccc2C)S(=O)(=O)c2ccccc2O1` (stereo partly drawn) [Compound 28, 3-(3-{[(R)-4-ethyl-1,1-dioxide-3,4-dihydro-2H-benzo[b][1,4,5]oxathiazepin-2-yl]methyl}-4-methylphenyl)-3-[5-(pyrrolidine-1-carbonyl)furan-2-yl]propanoic acid], in series [1], the “Metabolic stability*” value is listed as 67%. This molecule registered an IC50 in series [2] of 19 nM.

As to `CC(=O)c1ccc(C(c2ccc(C)c(CN3CC(CCOCc4ccccc4)Oc4ccccc4S3(=O)=O)c2)C(C)C(=O)O)s1` (centres unmarked) [Compound 13, 3-(5-acetylthiophen-2-yl)-3-[3-({4-[2-(benzyloxy)ethyl]-1,1-dioxide-3,4-dihydro-2H-benzo[b][1,4,5]oxathiazepin-2-yl}methyl)-4-methylphenyl]-2-methylpropanoic acid], the EC50 in the series with NRF2 was 6.71 nM. Also, in series [1], the “Metabolic stability*” value is 2%.

Consider `CC[C@@H]1CN(Cc2cc(C(CC(=O)O)c3cc4c(n3C)CCCC4=O)ccc2C)S(=O)(=O)c2ccccc2O1` (stereo partly drawn) [Compound 37, 3-(3-{[(R)-4-ethyl-1,1-dioxide-3,4-dihydro-2H-benzo[b][1,4,5]oxathiazepin-2-yl]methyl}-4-methylphenyl)-3-(1-methyl-4-oxo-4,5,6,7-tetrahydro-1H-indol-2-yl)propanoic acid], for which the “Metabolic stability*” value in series [1] was 89%. In addition, the IC50 in series [2] turned out to be 0.16 nM.

For the molecule `CC[C@@H]1CN(Cc2cc(C(CC(=O)O)c3ccc(C(C)=O)n3CC)ccc2C)S(=O)(=O)c2ccccc2O1` (stereo partly drawn) [Compound 34, 3-(5-acetyl-1-ethyl-1H-pyrrol-2-yl)-3-(3-{[(R)-4-ethyl-1,1-dioxide-3,4-dihydro-2H-benzo[b][1,4,5]oxathiazepin-2-yl]methyl}-4-methylphenyl)propanoic acid], the “Metabolic stability*” value in series [1] is recorded as 54%. Also, in series [2], the IC50 stood at 47 nM.

For the molecule `CC[C@@H]1CN(Cc2cc(C(CC(=O)O)c3ccc(C(=O)C4CC4)s3)ccc2C)S(=O)(=O)c2ccccc2O1` (stereo partly drawn) [Compound 20, 3-[5-(cyclopropanecarbonyl)thiophen-2-yl]-3-(3-{[(R)-4-ethyl-1,1-dioxide-3,4-dihydro-2H-benzo[b][1,4,5]oxathiazepin-2-yl]methyl}-4-methylphenyl)propanoic acid], in series [1], the “Metabolic stability*” value is recorded as 7%. This molecule yielded an IC50 in series [2] of 24 nM.

The term IC50 denotes the concentration needed to halve the response being measured. A low value points to greater potency in that assay.
